Among the data in ChEMBL document CHEMBL6109056, “Disrupted target binding with acryloyl group as potential Bcr-Abl/C-Src dual kinase inhibitor optimization strategies with maintained antitumor activity” (Bioorg Med Chem Lett, 2025) are IC50, EC50 and inhibition values, retold here.

pEC50, pIC50: −log10 of the molar value.

One test addresses Bcr/Abl fusion protein (Homo sapiens, UniProt P00519). As to the kind of experiment: Inhibition of wild-type Bcr-Abl (unknown origin) in presence of ATP. It counts as protein assay.
A short description of test [1]: Inhibition of C-Src (unknown origin) in presence of ATP. On the set-up: species or system Homo sapiens.
Test [2] has as its system K562. As to the kind of experiment: Cytotoxicity against human K562 cells assessed as growth inhibition incubated for 72 hrs by MTT assay. To be noted: K562, 72 h. It counts as functional, cell-based.
Test [3] deals with MCF7. As to the kind of experiment: Cytotoxicity against human MCF7 cells assessed as growth inhibition incubated for 72 hrs by MTT assay. In kind it is functional, cell-based. To be noted: MCF7, 72 h. On the technique in general: Formazan colour is commonly taken as a measure of viable cells.
In test [4] the test system is A549. Nature of the test: Cytotoxicity against human A549 cells assessed as growth inhibition incubated for 72 hrs by MTT assay. It counts as functional, cell-based. To be noted: A549, 72 h.
The target in test [5] is Bcr/Abl fusion protein (Homo sapiens) (UniProt P00519+P11274). As to the kind of experiment: Inhibition of wild-type Bcr-Abl (unknown origin) at 10 uM in presence of ATP relative to control. In kind it is protein assay.
The species named for a further test is Homo sapiens. As to the kind of experiment: Inhibition of C-Src (unknown origin) at 10 uM in presence of ATP relative to control.
For test [6], the system named is MCF7. As to the kind of experiment: Cytotoxicity against human MCF7 cells assessed as growth inhibition at 10 uM incubated for 72 hrs by MTT assay relative to control. In kind it is functional.
The test system of test [7] is K562. Nature of the test: Cytotoxicity against human K562 cells assessed as growth inhibition at 10 uM incubated for 72 hrs by MTT assay relative to control. It counts as functional.
Test [8] has as its system A549. As to the kind of experiment: Cytotoxicity against human A549 cells assessed as growth inhibition at 10 uM incubated for 72 hrs by MTT assay relative to control. It counts as functional.
The test system of test [9] is HCT-116. As to the kind of experiment: Cytotoxicity against human HCT-116 cells assessed as growth inhibition incubated for 72 hrs by MTT assay. In kind it is functional, cell-based. To be noted: HCT-116, 72 h.
Test [10] has as its system HCT-116. Nature of the test: Cytotoxicity against human HCT-116 cells assessed as growth inhibition at 10 uM incubated for 72 hrs by MTT assay relative to control. In kind it is functional.

Chain of Bcr/Abl fusion protein (P00519 whole entry, the tested form may be a part): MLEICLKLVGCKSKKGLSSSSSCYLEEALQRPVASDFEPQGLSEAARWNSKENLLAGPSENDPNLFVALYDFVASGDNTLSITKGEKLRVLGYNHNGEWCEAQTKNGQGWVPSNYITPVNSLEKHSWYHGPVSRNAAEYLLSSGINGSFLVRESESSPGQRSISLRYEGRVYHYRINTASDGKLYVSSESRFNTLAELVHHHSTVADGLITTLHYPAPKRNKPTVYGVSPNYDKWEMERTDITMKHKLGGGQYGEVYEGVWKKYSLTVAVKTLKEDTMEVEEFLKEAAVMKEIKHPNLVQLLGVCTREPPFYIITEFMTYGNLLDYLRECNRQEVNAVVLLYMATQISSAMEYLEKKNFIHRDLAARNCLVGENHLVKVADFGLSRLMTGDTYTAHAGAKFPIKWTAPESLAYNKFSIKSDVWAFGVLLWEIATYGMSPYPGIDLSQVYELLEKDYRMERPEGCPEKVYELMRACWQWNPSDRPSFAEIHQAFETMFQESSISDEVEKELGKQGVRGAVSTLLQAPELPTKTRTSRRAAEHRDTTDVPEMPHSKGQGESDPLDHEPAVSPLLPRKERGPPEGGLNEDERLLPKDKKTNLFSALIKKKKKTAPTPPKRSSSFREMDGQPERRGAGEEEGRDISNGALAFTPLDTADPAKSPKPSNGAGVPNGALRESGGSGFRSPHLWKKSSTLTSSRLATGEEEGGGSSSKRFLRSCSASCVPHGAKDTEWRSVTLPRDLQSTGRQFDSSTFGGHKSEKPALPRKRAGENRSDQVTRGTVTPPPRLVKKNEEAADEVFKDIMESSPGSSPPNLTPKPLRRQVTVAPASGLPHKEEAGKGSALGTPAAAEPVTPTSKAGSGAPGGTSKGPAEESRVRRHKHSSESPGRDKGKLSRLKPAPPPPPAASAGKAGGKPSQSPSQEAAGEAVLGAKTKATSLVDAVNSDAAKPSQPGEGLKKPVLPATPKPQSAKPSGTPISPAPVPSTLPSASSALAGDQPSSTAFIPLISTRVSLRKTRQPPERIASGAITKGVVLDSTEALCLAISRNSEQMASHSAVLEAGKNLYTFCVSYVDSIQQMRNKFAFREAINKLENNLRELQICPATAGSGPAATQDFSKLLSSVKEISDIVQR
Chain of Bcr/Abl fusion protein (P11274 whole entry, further chain, the tested form may be a part): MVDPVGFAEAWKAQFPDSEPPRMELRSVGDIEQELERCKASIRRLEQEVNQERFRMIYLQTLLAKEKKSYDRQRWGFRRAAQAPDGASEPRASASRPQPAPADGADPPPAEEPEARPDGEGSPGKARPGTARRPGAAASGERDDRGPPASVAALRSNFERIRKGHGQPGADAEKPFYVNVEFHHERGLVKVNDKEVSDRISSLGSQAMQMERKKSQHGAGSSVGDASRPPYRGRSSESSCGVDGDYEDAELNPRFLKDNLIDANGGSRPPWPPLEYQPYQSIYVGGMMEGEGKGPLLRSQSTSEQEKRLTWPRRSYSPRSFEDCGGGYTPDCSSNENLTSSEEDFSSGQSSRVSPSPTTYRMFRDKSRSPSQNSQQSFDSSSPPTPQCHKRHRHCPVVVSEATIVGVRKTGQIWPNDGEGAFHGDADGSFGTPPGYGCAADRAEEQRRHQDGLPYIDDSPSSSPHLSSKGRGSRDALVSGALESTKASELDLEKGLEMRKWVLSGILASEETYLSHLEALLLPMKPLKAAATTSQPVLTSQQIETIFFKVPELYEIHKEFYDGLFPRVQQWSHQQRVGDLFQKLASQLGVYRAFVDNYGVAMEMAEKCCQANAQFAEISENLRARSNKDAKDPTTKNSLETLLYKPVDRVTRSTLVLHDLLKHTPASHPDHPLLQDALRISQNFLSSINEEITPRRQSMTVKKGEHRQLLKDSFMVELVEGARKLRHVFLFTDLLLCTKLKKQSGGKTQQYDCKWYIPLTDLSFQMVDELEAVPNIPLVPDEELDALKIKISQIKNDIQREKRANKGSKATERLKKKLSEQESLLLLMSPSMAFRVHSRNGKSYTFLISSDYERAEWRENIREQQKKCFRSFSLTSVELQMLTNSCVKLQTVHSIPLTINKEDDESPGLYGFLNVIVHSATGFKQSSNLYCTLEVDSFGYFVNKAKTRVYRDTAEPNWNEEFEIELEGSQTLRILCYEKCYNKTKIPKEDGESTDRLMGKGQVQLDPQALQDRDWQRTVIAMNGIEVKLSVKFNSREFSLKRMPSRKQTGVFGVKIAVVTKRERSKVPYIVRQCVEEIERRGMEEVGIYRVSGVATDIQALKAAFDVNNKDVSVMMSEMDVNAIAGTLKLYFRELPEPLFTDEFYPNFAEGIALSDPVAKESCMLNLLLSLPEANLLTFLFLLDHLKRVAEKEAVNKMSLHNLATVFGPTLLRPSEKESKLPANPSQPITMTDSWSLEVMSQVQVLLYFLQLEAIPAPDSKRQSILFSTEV
Chain of Bcr/Abl fusion protein (Homo sapiens) (P00519 whole entry, looked up, the tested form may be a part): as the sequence (P00519 whole entry, the tested form may be a part) above
Chain of Bcr/Abl fusion protein (Homo sapiens) (P11274 whole entry, looked up, the tested form may be a part): as the sequence (P11274 whole entry, further chain, the tested form may be a part) above

In general, pIC50 refers to −log10 of the IC50, conventionally taken in molar units. In general, pEC50 refers to −log10 of the EC50, conventionally taken in molar units. Consider `C=CC(=O)N(c1cc(OC)ccc1Cl)c1c(C#N)cnc2cc(OCCCN3CCCCC3)c(OC)cc12`, for which the pIC50 on Bcr/Abl fusion protein was 6.95; in test [1], 6.88. The pEC50 in the test on K562 [2] was 5.01; in the test on MCF7 [3] it was 5.02; in the test with A549 [4], 5.05.

On to `C=CC(=O)N(c1cc(OC)c(Cl)cc1Cl)c1c(C#N)cnc2cc(OC)c(OC)cc12`, for which the values for the pIC50 (on Bcr/Abl fusion protein; in test [1]) were 6.05 and 6.06, respectively.

The inhibition is the drop in the measured response relative to a control, in per cent. Take `C=CC(=O)N(c1ccccc1)c1c(C#N)cnc2cc(OC)c(OC)cc12`: the figures for the inhibition (in [5]; in the test listed under Homo sapiens) were 7.1% and 9.5%, respectively.

For `C=CC(=O)N(c1cc(OC)c(Cl)cc1Cl)c1c(C#N)cnc2cc(OCCCN3CCOCC3)c(OC)cc12`, the results for the pIC50 (at Bcr/Abl fusion protein; in test [1]) were 6.77 and 6.96, respectively. Moreover, the figures for the negative logarithm of the EC50 (pEC50) in the test with K562 [2], in the test on MCF7 [3] and with A549 [4] were 5.19, 5.11 and 5.38, respectively.

In the case of `COc1cc2ncc(C#N)c(Nc3ccc(Cl)cc3Cl)c2cc1OC`, the pIC50 was 8.36 at Bcr/Abl fusion protein and 8.33 in test [1].

As to `COc1ccc(Cl)c(Nc2c(C#N)cnc3cc(OCCCN4CCCCC4)c(OC)cc23)c1`, the pIC50 on Bcr/Abl fusion protein was 9.52; in test [1], 9.46. In addition, the pEC50 in the test on K562 [2] is 5.09; in the test with A549 [4], 5.10. Further, the inhibition at 10 µM in the test with MCF7 [6] was found to be 29%.

As for `C=CC(=O)N(c1cc(OC)ccc1Cl)c1c(C#N)cnc2cc(OCCCN3CCOCC3)c(OC)cc12`, the pIC50 was 6.71 on Bcr/Abl fusion protein and 6.68 in [1]. Besides, the inhibition at 10 µM in the test on K562 [7] came out at 40%; in the test on MCF7 [6], 25%; with A549 [8], 31%.

With `COc1cc(Nc2c(C#N)cnc3cc(OCCCN4CCCCC4)c(OC)cc23)c(Cl)cc1Cl`, the pIC50 at Bcr/Abl fusion protein was 9.85; in test [1] it was 9.96. For the same compound, the pEC50 in the test on K562 [2] was 5.13; in the test on HCT-116 [9], 5.10; in the test on A549 [4], 5.07.

Take `C=CC(=O)N(c1cc(OC)ccc1Cl)c1c(C#N)cnc2cc(OC)c(OC)cc12`: the figures for the pIC50 (at Bcr/Abl fusion protein; in test [1]) were 6.24 and 5.74, respectively.

Regarding `COc1cc(Nc2c(C#N)cnc3cc(OC)c(OC)cc23)c(Cl)cc1Cl`, the pIC50 was 9.12 on Bcr/Abl fusion protein and 9.11 in [1].

Take `C=CC(=O)N(c1cc(OC)c(Cl)cc1Cl)c1c(C#N)cnc2cc(OCCCN3CCCCC3)c(OC)cc12`: the pIC50 on Bcr/Abl fusion protein is 6.67; in [1], 6.77. For the same compound, the pEC50 in the test with K562 [2] is 5.50; in the test on HCT-116 [9], 5.20; with A549 [4], 5.26.

For the compound `COc1cc(N(C(C)=O)c2c(C#N)cnc3cc(OCCCN4CCCCC4)c(OC)cc23)c(Cl)cc1Cl`, the pIC50 was 5.96 on Bcr/Abl fusion protein and 6.11 in test [1]. Moreover, the inhibition at 10 µM amounted to 31% in the test with K562 [7], 34% in the test on MCF7 [6], 34% with HCT-116 [10] and 28% with A549 [8].

As for `C=CC(=O)N(c1cc(OC)ccc1Cl)c1c(C#N)cnc2cc(OCCCN3CCN(C)CC3)c(OC)cc12`, the figures for the pIC50 (at Bcr/Abl fusion protein; in test [1]) were 6.73 and 6.32, respectively. Further, the pEC50 with K562 [2] was 5.01. Moreover, the inhibition at 10 µM came to 40% in the test on MCF7 [6] and 32% with A549 [8].

Take `COc1ccc(Cl)c(Nc2c(C#N)cnc3cc(OCCCN4CCN(C)CC4)c(OC)cc23)c1`: the pIC50 at Bcr/Abl fusion protein was 10.22; in [1], 9.64. Besides, in the test on K562 [7], the inhibition at 10 µM worked out at 46%. The pEC50 with MCF7 [3] and in the test with A549 [4] was 5.35 in each case.

`COc1ccc(Cl)c(Nc2c(C#N)cnc3cc(OCCCN4CCOCC4)c(OC)cc23)c1`: the pIC50 on Bcr/Abl fusion protein was 9.64; in test [1], 9.48. Besides, the pEC50 with K562 [2] was 5.92; in the test with MCF7 [3], 5.03; with A549 [4] it was 5.15.

On to `COc1cc(Nc2c(C#N)cnc3cc(OCCCN4CCOCC4)c(OC)cc23)c(Cl)cc1Cl`, for which the values for the pIC50 (on Bcr/Abl fusion protein; in [1]) were 9.38 and 9.57, respectively. Further, the figures for the pEC50 in the test on K562 [2], with MCF7 [3] and in the test with A549 [4] were 5.19, 5.06 and 5.13, respectively.

`C=CC(=O)N(c1ccc(Br)cc1Br)c1c(C#N)cnc2cc(OC)c(OC)cc12`: the pIC50 was below 5.00 at Bcr/Abl fusion protein and 5.07 in test [1].

As for `C=CC(=O)N(c1ccc(Cl)cc1Cl)c1c(C#N)cnc2cc(OC)c(OC)cc12`, the figures for the pIC50 (at Bcr/Abl fusion protein; in test [1]) were 5.88 and 5.68, respectively.

In the case of `C=CC(=O)N(c1cc(OC)c(Cl)cc1Cl)c1c(C#N)cnc2cc(OCCCN3CCN(C)CC3)c(OC)cc12`, the results for the pIC50 (at Bcr/Abl fusion protein; in test [1]) were 7.25 and 7.00, respectively. For the same compound, the pEC50 in the test on K562 [2] was 5.97; in the test on HCT-116 [9], 5.31; in the test on A549 [4], 5.84.

For the compound `COc1ccc(Cl)c(Nc2c(C#N)cnc3cc(OC)c(OC)cc23)c1`, the figures for the pIC50 (on Bcr/Abl fusion protein; in test [1]) were 9.19 and 9.05, respectively.

Take `COc1cc2ncc(C#N)c(Nc3ccc(Br)cc3Br)c2cc1OC`: the pIC50 is 5.27 on Bcr/Abl fusion protein and 5.61 in test [1].

In the case of `COc1cc2ncc(C#N)c(Nc3ccccc3)c2cc1OC`, the values for the inhibition (in test [5]; in the test filed under Homo sapiens) were 98.7% and 96.5%, respectively.

Take `COc1cc(Nc2c(C#N)cnc3cc(OCCCN4CCN(C)CC4)c(OC)cc23)c(Cl)cc1Cl` [BOSUTINIB]: the pIC50 in test [1] is 9.85. Also, the pEC50 was 6.16 in the test on K562 [2], 5.47 in the test on HCT-116 [9] and 6.01 with A549 [4].
